Structures are written as SMILES. Like-named read-outs stand apart in the source and are kept apart here. Peptide text beside a SMILES is read from it.

For test [1], the target named is T1, BK2 receptor (Cavia porcellus, UniProt O70526).
T1 construct: tested for activity on guinea pig ileum in vitro on the standard tissue bath/strain gauge system; from tissue; host or cells: guinea pig ileum
T1 sequence (O70526 1-372): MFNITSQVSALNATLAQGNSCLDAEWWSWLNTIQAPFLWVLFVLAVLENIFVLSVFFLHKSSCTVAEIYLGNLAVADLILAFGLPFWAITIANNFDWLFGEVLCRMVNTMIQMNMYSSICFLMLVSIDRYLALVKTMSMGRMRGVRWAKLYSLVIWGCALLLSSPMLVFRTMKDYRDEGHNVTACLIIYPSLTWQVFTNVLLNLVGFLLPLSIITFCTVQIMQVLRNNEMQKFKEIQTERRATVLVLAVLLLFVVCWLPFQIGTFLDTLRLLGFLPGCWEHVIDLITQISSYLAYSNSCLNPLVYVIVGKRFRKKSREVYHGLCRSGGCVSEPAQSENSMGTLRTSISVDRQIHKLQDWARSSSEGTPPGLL
The test can be described thus: guinea-pig ileum (GPI) in vitro, antagonism of BK. Format: cell-based. Here is the method: Thus, in vitro studies were performed on standard assay systems, namely, guinea-pig ileum (GPI), rat uterus (RU) and rabbit jugular vein (RJV). […] The potency of each compound was assessed as a pA2 value according to the method of Arunlakshana & Schild, Br. J. Pharmacol. Chemother., 1.4:48-58 (1959). The pA2 can be defined as the negative logarithm of the molar concentration of the antagonist in the presence of which the potency of the agonist is reduced two-fold, i.e., twice the amount of agonist is required to produce a given response in the presence of, than in the absence of, the antagonist. A high potency of antagonism is indicated by a high pA2 value, i.e., a low concentration of antagonist is effective.
The percentage recovery (% Rec) was also determined for compounds with respect to each assay.
The various compounds identified in Table B below were prepared following the procedure of Example 1 with the Cys moiety introduced into the parent CP-0088 at the position indicated followed by reaction between the sulfhydryl group of the Cys residue and BMH to provide dimers as indicated. The Cys-modified monomers and the resultant dimers were tested for activity on guinea pig ileum in vitro on the standard tissue bath/strain gauge system as before.

Test [2] addresses T2, BK2 receptor (Rattus norvegicus, UniProt P25023).
T2 sequence (P25023 1-396): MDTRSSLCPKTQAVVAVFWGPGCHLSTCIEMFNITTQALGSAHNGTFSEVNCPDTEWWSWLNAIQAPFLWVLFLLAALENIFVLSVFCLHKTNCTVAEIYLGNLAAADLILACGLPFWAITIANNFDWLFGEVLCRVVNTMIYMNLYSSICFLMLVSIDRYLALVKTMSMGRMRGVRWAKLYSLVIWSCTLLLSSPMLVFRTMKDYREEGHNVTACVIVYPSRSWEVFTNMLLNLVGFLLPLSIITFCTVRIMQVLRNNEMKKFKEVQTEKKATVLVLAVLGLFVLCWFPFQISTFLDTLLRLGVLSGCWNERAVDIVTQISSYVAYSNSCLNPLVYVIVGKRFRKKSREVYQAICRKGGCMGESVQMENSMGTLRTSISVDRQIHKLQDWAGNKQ
The test can be described thus: cell-based.

A further test addresses T3, NK1 receptor (Cavia porcellus, UniProt P30547).
T3 construct: a standard guinea pig ileum assay of NK1 receptor activity; from tissue; host or cells: guinea pig ileum
The test can be described thus: guinea pig ileum assay of NK1 receptor activity against substance P. The conditions noted are these: Table O; read-out: NK1 : GPI pA2 (± s.e.m.) (converted). Format: cell-based. The text has this:
In order to illustrate the potential of blocking two different receptor populations with a single compound a consensus NK1 receptor antagonist (DArg-DPro-Lys-Pro-Gln-Asn-DPhe-Phe-DTrp-Leu-Nle) was synthesized. […] Once the activity of this reference ligand was established, a series of lysine containing monomers formed by the systematic substitution of a lysine residue sequentially through the reference peptide was synthesized.

Where [3] appears, read: Table B, read-out: pA2 GUINEA PIG ILEUM (converted).

T3 sequence (P30547 whole entry): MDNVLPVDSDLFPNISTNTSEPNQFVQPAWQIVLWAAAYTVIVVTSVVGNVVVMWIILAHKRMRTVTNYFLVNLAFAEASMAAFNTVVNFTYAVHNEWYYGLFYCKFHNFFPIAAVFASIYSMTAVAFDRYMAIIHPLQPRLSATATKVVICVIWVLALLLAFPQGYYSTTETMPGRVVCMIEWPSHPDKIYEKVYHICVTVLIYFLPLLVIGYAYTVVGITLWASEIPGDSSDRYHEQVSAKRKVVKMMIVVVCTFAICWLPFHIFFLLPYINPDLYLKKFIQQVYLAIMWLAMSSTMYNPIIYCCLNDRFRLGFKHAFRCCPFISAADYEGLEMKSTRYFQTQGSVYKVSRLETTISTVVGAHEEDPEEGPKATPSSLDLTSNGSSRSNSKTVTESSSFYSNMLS

Regarding `CC(C)C[C@H](NC(=O)[C@@H](Cc1ccccc1)NC(=O)[C@H](CSSC[C@H](NC(=O)[C@H](Cc1ccccc1)NC(=O)CNC(=O)[C@@H]1C[C@@H](O)CN1C(=O)[C@@H]1CCCN1C(=O)[C@H](CCCNC(=N)N)NC(=O)[C@H](N)CCCNC(=N)N)C(=O)N[C@H](Cc1ccccc1)C(=O)N[C@@H](CC(C)C)C(=O)N[C@@H](CCCNC(=N)N)C(=O)O)NC(=O)[C@H](Cc1ccccc1)NC(=O)CNC(=O)[C@@H]1C[C@@H](O)CN1C(=O)[C@@H]1CCCN1C(=O)[C@H](CCCNC(=N)N)NC(=O)[C@H](N)CCCNC(=N)N)C(=O)N[C@@H](CCCNC(=N)N)C(=O)O` [CP-0138] (HELM PEPTIDE1{[dR].R.P.[Hyp].G.F.C.[dF].L.R}|PEPTIDE2{[dR].R.P.[Hyp].G.F.C.[dF].L.R}$PEPTIDE1,PEPTIDE2,7:R3-7:R3$$$V2.0), the Kb was 63.1 nM at BK2 receptor [1] (Table E, read-out: GPI pA2 (converted)) and 10 nM at BK2 receptor [2].
With `CC(C)C[C@H](NC(=O)[C@@H](Cc1ccccc1)NC(=O)[C@H](CO)NC(=O)[C@H](Cc1ccccc1)NC(=O)CNC(=O)[C@@H]1C[C@@H](O)CN1C(=O)[C@@H]1CCCN1C(=O)[C@H](CCCNC(=N)N)NC(=O)[C@@H](N)CS)C(=O)N[C@@H](CCCNC(=N)N)C(=O)O` [CP-0140] (HELM PEPTIDE1{C.R.P.[Hyp].G.F.S.[dF].L.R}$$$$V2.0), the Kb at BK2 receptor [1] (setting [3]) was 200 nM; on BK2 receptor [2], 79.4 nM.
For `CC(C)C[C@H](NC(=O)[C@@H](Cc1ccccc1)NC(=O)[C@H](CO)NC(=O)[C@H](CS)NC(=O)CNC(=O)[C@@H]1C[C@@H](O)CN1C(=O)[C@@H]1CCCN1C(=O)[C@H](CCCNC(=N)N)NC(=O)[C@H](N)CCCNC(=N)N)C(=O)N[C@@H](CCCNC(=N)N)C(=O)O` [CP-0144] (HELM PEPTIDE1{[dR].R.P.[Hyp].G.C.S.[dF].L.R}$$$$V2.0), on BK2 receptor [1] (setting [3]), the Kb is 398 nM.
Turning to `CC(C)C[C@H](NC(=O)[C@@H](Cc1ccccc1)NC(=O)[C@H](CO)NC(=O)[C@H](Cc1ccccc1)NC(=O)CNC(=O)[C@@H]1C[C@@H](O)CN1C(=O)[C@@H]1CCCN1C(=O)[C@H](CCCNC(=N)N)NC(=O)[C@H](N)CS)C(=O)N[C@@H](CCCNC(=N)N)C(=O)O` [CP-0149] (HELM PEPTIDE1{[dC].R.P.[Hyp].G.F.S.[dF].L.R}$$$$V2.0), on BK2 receptor [1] (setting [3]), the Kb is 200 nM.
Take `CC(C)C[C@H](NC(=O)[C@@H](Cc1ccccc1)NC(=O)[C@H](CO)NC(=O)[C@H](Cc1ccccc1)NC(=O)CNC(=O)[C@@H]1C[C@@H](O)CN1C(=O)[C@@H]1CCCN1C(=O)[C@H](CCCNC(=N)N)NC(=O)[C@@H](N)CSC1CC(=O)N(CCCCCCN2C(=O)CC(SC[C@H](N)C(=O)N[C@@H](CCCNC(=N)N)C(=O)N3CCC[C@H]3C(=O)N3C[C@H](O)C[C@H]3C(=O)NCC(=O)N[C@@H](Cc3ccccc3)C(=O)N[C@@H](CO)C(=O)N[C@H](Cc3ccccc3)C(=O)N[C@@H](CC(C)C)C(=O)N[C@@H](CCCNC(=N)N)C(=O)O)C2=O)C1=O)C(=O)N[C@@H](CCCNC(=N)N)C(=O)O` (stereo partly shown) [CP-0152] (HELM PEPTIDE1{C.R.P.[Hyp].G.F.S.[dF].L.R}|PEPTIDE2{C.R.P.[Hyp].G.F.S.[dF].L.R}|CHEM1{[O=C1CC([*:1])C(=O)N1CCCCCCN1C(=O)CC([*:2])C1=O]}$PEPTIDE1,CHEM1,1:R3-1:R1|PEPTIDE2,CHEM1,1:R3-1:R2$$$V2.0): the Kb at BK2 receptor [1] (setting [3]) was more than 1000 nM.
For `CC(C)C[C@H](NC(=O)[C@@H](Cc1ccccc1)NC(=O)[C@H](CO)NC(=O)[C@H](Cc1ccccc1)NC(=O)CNC(=O)[C@@H]1C[C@@H](O)CN1C(=O)[C@@H]1CCCN1C(=O)[C@H](CSC1CC(=O)N(CCCCCCN2C(=O)CC(SC[C@H](NC(=O)[C@H](N)CCCNC(=N)N)C(=O)N3CCC[C@H]3C(=O)N3C[C@H](O)C[C@H]3C(=O)NCC(=O)N[C@@H](Cc3ccccc3)C(=O)N[C@@H](CO)C(=O)N[C@H](Cc3ccccc3)C(=O)N[C@@H](CC(C)C)C(=O)N[C@@H](CCCNC(=N)N)C(=O)O)C2=O)C1=O)NC(=O)[C@H](N)CCCNC(=N)N)C(=O)N[C@@H](CCCNC(=N)N)C(=O)O` (stereo partly shown) [CP-0153] (HELM PEPTIDE1{[dR].C.P.[Hyp].G.F.S.[dF].L.R}|PEPTIDE2{[dR].C.P.[Hyp].G.F.S.[dF].L.R}|CHEM1{[O=C1CC([*:1])C(=O)N1CCCCCCN1C(=O)CC([*:2])C1=O]}$PEPTIDE1,CHEM1,2:R3-1:R1|PEPTIDE2,CHEM1,2:R3-1:R2$$$V2.0), at BK2 receptor [1] (setting [3]), the Kb is 25.1 nM.
Turning to `CC(C)C[C@H](NC(=O)[C@@H](Cc1ccccc1)NC(=O)[C@H](CO)NC(=O)[C@H](Cc1ccccc1)NC(=O)CNC(=O)[C@@H]1C[C@@H](O)CN1C(=O)[C@H](CSC1CC(=O)N(CCCCCCN2C(=O)CC(SC[C@H](NC(=O)[C@H](CCCNC(=N)N)NC(=O)[C@H](N)CCCNC(=N)N)C(=O)N3C[C@H](O)C[C@H]3C(=O)NCC(=O)N[C@@H](Cc3ccccc3)C(=O)N[C@@H](CO)C(=O)N[C@H](Cc3ccccc3)C(=O)N[C@@H](CC(C)C)C(=O)N[C@@H](CCCNC(=N)N)C(=O)O)C2=O)C1=O)NC(=O)[C@H](CCCNC(=N)N)NC(=O)[C@H](N)CCCNC(=N)N)C(=O)N[C@@H](CCCNC(=N)N)C(=O)O` (stereo partly shown) [CP-0154] (HELM PEPTIDE1{[dR].R.C.[Hyp].G.F.S.[dF].L.R}|PEPTIDE2{[dR].R.C.[Hyp].G.F.S.[dF].L.R}|CHEM1{[O=C1CC([*:1])C(=O)N1CCCCCCN1C(=O)CC([*:2])C1=O]}$PEPTIDE1,CHEM1,3:R3-1:R1|PEPTIDE2,CHEM1,3:R3-1:R2$$$V2.0), the Kb at BK2 receptor [1] (setting [3]) is 126 nM.
For the molecule `CCCC[C@H](NC(=O)[C@H](CC(C)C)NC(=O)[C@@H](Cc1c[nH]c2ccccc12)NC(=O)[C@H](Cc1ccccc1)NC(=O)[C@@H](Cc1ccccc1)NC(=O)[C@H](CC(N)=O)NC(=O)[C@H](CCC(N)=O)NC(=O)[C@@H]1CCCN1C(=O)[C@H](CCCCN)NC(=O)[C@H]1CCCN1C(=O)[C@@H](N)CCCCNC(=O)CCCCCN1C(=O)CC(SC[C@H](NC(=O)[C@H](Cc2ccccc2)NC(=O)CNC(=O)[C@@H]2C[C@@H](O)CN2C(=O)[C@@H]2CCCN2C(=O)[C@H](CCCNC(=N)N)NC(=O)[C@H](N)CCCNC(=N)N)C(=O)N[C@H](Cc2ccccc2)C(=O)N[C@@H](CC(C)C)C(=O)N[C@@H](CCCNC(=N)N)C(=O)O)C1=O)C(N)=O` (stereo partly shown) [CP-0390] (HELM PEPTIDE1{K.[dP].K.P.Q.N.[dF].F.[dW].L.[Nle].[am]}|PEPTIDE2{[dR].R.P.[Hyp].G.F.C.[dF].L.R}|CHEM1{[O=C1CC([*:2])C(=O)N1CCCCCC(=O)[*:1]]}$PEPTIDE1,CHEM1,1:R3-1:R1|PEPTIDE2,CHEM1,7:R3-1:R2$$$V2.0), the Kb on BK2 receptor [2] was 63.1 nM; on NK1 receptor it was 15800 nM.
For `CCCC[C@H](NC(=O)[C@H](CC(C)C)NC(=O)[C@@H](Cc1c[nH]c2ccccc12)NC(=O)[C@H](Cc1ccccc1)NC(=O)[C@@H](Cc1ccccc1)NC(=O)[C@H](CC(N)=O)NC(=O)[C@H](CCC(N)=O)NC(=O)[C@@H]1CCCN1C(=O)[C@H](CCCCN)NC(=O)[C@H](CCCCNC(=O)CCCCCN1C(=O)CC(SC[C@H](NC(=O)[C@H](Cc2ccccc2)NC(=O)CNC(=O)[C@@H]2C[C@@H](O)CN2C(=O)[C@@H]2CCCN2C(=O)[C@H](CCCNC(=N)N)NC(=O)[C@H](N)CCCNC(=N)N)C(=O)N[C@H](Cc2ccccc2)C(=O)N[C@@H](CC(C)C)C(=O)N[C@@H](CCCNC(=N)N)C(=O)O)C1=O)NC(=O)[C@H](N)CCCNC(=N)N)C(N)=O` (stereo partly shown) [CP-0391] (HELM PEPTIDE1{[dR].K.K.P.Q.N.[dF].F.[dW].L.[Nle].[am]}|PEPTIDE2{[dR].R.P.[Hyp].G.F.C.[dF].L.R}|CHEM1{[O=C1CC([*:2])C(=O)N1CCCCCC(=O)[*:1]]}$PEPTIDE1,CHEM1,2:R3-1:R1|PEPTIDE2,CHEM1,7:R3-1:R2$$$V2.0), the figures for the Kb on BK2 receptor [2] and at NK1 receptor were 79.4 nM and 10000 nM, respectively.

The record behind these values is patent publication US5620958A, “Bradykinin antagonists” (Coretech, Inc., priority 1994, dated 1997).
